From patent publication US20230101803A1, “3CLPRO-TARGETING PHILLYRIN, DERIVATIVE THEREOF, AND USE THEREOF AGAINST NOVEL CORONAVIRUS” (DALIAN FUSHENG NATURAL MEDICINE DEVELOPMENT CO., LTD., priority 2020, published 2023)
Like-named read-outs stand apart in the source and are kept apart here.

How the values were obtained:
[1] = test system: SARS-CoV-2 virus; assay: Death protection of hACE2 mice infected with novel coronavirus; type: in vivo, hACE2 transgenic C57BL/6 mice; settings: positive control 50 mg/kg
Experimental: Except for administrating PBS to the mice in the normal group by nasal drip, the mice in other groups were infected with 10^5 PFU of SARS-CoV-2 virus by nasal drip. […] Changes in body weight were recorded every day after infection, and 5-day mortality was calculated.

[2] = test system: SARS-CoV-2 virus; assay: Viral titer in lung tissues of novel coronavirus-infected mice; type: in vivo, ACE2 transgenic C57BL/6 mice; settings: positive control 50 mg/kg, fifth day after infection
Text: (§1) Mice: hACE2 mice, 6-7 weeks old, 20-40 g, 120 males in total, laboratory animal supplier: Jiangsu Gempharmatech Co., Ltd.; laboratory animal production license: SOCK (Su) 2018-0008; laboratory animal certificate No.: No.320727201100243581; diets supplier: Jiangsu Medicience Biopharmaceutical Co., Ltd.
(§2) Except for administrating PBS to the mice in the normal group by nasal drip, the mice in other groups were infected with 10^5 PFU of SARS-CoV-2 virus by nasal drip. Two hours after infection, phillyrin was intragastrically administrated to the mice in the administrating groups, once a day, for 5 consecutive days. On the fifth day after infection, the animals were dissected to take lungs for tissue homogenization to test the viral titer. Total RNA was extracted from the supernatant of lung tissue homogenate by Trizol method, and the mRNA expression of related inflammatory factors was detected by RT-qPCR.

[3] = test system: IL-1β; assay: IL-1β mRNA expression in lung homogenate of infected mice (RT-qPCR); type: in vivo, ACE2 transgenic C57BL/6 mice; settings: positive control 50 mg/kg, fifth day after infection
Text: as §1, §2

[4] = test system: IFN-γ; assay: IFN-γ mRNA expression in lung homogenate of infected mice (RT-qPCR); type: in vivo, ACE2 transgenic C57BL/6 mice; settings: positive control 50 mg/kg, fifth day after infection
Text: as §1, §2

[5] = test system: IFN-α; assay: IFN-α mRNA expression in lung homogenate of infected mice (RT-qPCR); type: in vivo, ACE2 transgenic C57BL/6 mice; settings: positive control 50 mg/kg, fifth day after infection
Text: as §1, §2

[6] = test system: MCP-1; assay: MCP-1 mRNA expression in lung homogenate of infected mice (RT-qPCR); type: in vivo, ACE2 transgenic C57BL/6 mice; settings: positive control 50 mg/kg, fifth day after infection
Text: as §1, §2

[7] = test system: HCoV-229E; assay: CPE inhibition of HCoV-229E in vitro (process of first embodiment); type: cell-based
[8] = molecular target: SARS-CoV-2 3CL pro protein (Severe acute respiratory syndrome coronavirus 2, UniProt P0DTD1); type: binding; settings: 3CL pro protein peak at 278 nm; protein 10^−5 M, compound 10^−4 M

## CCC(CC)COC(=O)[C@H](C)N[P@](=O)(OC[C@H]1O[C@@](C#N)(c2ccc3c(N)ncnn23)[C@H](O)[C@@H]1O)Oc1ccccc1 [Remdesivir]
[1]
  Mean survival days: 4.86 ± 0.38 days
  Survival rate (%): 87.50%
[2]
  Viral titer in lung (Log10): 1.68 ± 0.45 Log10
[3]
  IL-1β mRNA expression in lung homogenate: 7.41 ± 5.86
[4]
  IFN-γ mRNA expression in lung homogenate: 173.79 ± 84.84
[5]
  IFN-α mRNA expression in lung homogenate: 69.99 ± 53.20
[6]
  MCP-1 mRNA expression in lung homogenate: 7.31 ± 5.14

## COc1cc([C@H]2OC[C@H]3[C@@H]2CO[C@H]3c2ccc(OC)c(OC)c2)ccc1O [phillygenin]
[7]; HCoV-229E, compared with the composition
  inhibitory effect (compared in the same study): worse

## phillyrin [KD-1]
[7]
  inhibitory effect (compared in the same study): worse
[8]
  change of UV-Vis absorbance of 3CL pro protein after compound was added: the absorbance was increased and the peak shifted
